The values below come from patent EP4591861A1 (IBIOME Biotechnology Co., Ltd., priority 2022, dated 2024).

For assay [1], the system named is AAD-induced depression model. The assay can be described thus: Forced swimming test in AAD-induced depression model. Format: in vivo, mice. The following applies: for immobility time: forced swimming, AAD mice, 2 hours after administration. The procedure:
The forced swimming test apparatus is a transparent 20×30cm round barrel filled with pure water, with a diameter of 20cm and a water depth of 15cm. The pure water temperature is 23-25°C. A camera is installed in front of the apparatus and is flush with the water surface. After the mouse is placed in the water, a video of its activities in the water is collected for 6 minutes. The last 4 min of the video were analyzed to determine the immobility time of the mouse. Immobility behavior is defined as the behavior of the mouse floating, not struggling, or relying only on occasional swinging to maintain floating. The longer the immobility time, the more severe the depression.
(§1) 11, 12, and 13. […] At the same time, it still has a significant antidepressant effect at concentrations of 0.3 mg/kg, 1 mg/kg, and 10 mg/kg.

Assay [2] has as its system AAD-induced depression model. The experiment in a line: Tail suspension test in AAD-induced depression model. As to conditions: AAD mice, 2 hours after administration. In kind it is in vivo. The procedure:
The tail suspension test uses tape to suspend mice by their tails in a position where they cannot escape or grab onto nearby surfaces. A camera is mounted in front of the mice to record the activity of the mice for 6 minutes while they are suspended. The last 4 min of the video is then analyzed to determine the time the mice spend immobile. This test is based on the idea that animals that are subjected to short-term, unavoidable stress will develop an immobile posture, and the more severe the depressive phenotype, the less time they will spend trying to escape.
as §1

Assay [3] relates to AAD-induced depression model. The experiment in a line: Sucrose preference test in AAD-induced depression model. In kind it is in vivo. The following applies: AAD mice; 0.1 mg/kg intravenous; versus AAD mice + normal saline group (P<0.01). The procedure:
as §1

A further assay addresses T1, human BBOX1 (Homo sapiens, UniProt O75936).
T1 sequence (O75936 1-387): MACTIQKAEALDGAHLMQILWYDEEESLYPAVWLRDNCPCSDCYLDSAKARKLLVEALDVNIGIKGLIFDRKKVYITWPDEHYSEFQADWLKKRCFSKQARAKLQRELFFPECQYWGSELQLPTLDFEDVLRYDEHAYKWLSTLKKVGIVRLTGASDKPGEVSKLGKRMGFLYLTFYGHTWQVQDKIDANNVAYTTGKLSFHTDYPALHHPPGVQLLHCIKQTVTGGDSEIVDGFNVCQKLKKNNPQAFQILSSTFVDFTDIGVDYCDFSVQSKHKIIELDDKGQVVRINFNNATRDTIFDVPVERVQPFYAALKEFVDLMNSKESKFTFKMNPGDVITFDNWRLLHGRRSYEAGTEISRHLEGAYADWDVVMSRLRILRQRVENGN
As to conditions: binding to the active site of human BBOX1; background statement; cited from earlier work.

Assay [4] relates to CRS-induced depression model. The experiment in a line: Sucrose preference test in CRS-induced depression model. The following applies: CRS mice; 0.1 mg/kg intravenous; versus CRS + normal saline group (P<0.01).
Text: After adapting to the environment, from day 0, the CRS mouse group was subjected to chronic, unpredictable mild stimulation for 21 days to simulate the chronic low-intensity stress received by humans in daily life. Every day, one stimulus was selected from the day and night to treat the mice, and the order was random and continuous without repetition, so that the mice could not predict the appearance of the stimulus (Table 1).
Two hours after administration, the mice were subjected to forced swimming and tail suspension tests, and the immobility time of the mice in each group in the forced swimming and tail suspension tests was compared.
The sucrose preference test is used to evaluate the sucrose water preference of mice, which can reflect the degree of anhedonia of mice. In the entire animal experiment, a total of two sucrose preference tests were conducted. Before modeling, the sucrose preference coefficient of all mice was measured by the sucrose preference tests to ensure that the mice in the experiment were in the same state. After the test, the sucrose preference tests were formally carried out, including the adaptation training part and the test part. […] After the adaptation, fasting and water deprivation for 24 hours, and then the sucrose preference coefficient was measured. […]
The subject of assay [5] is Cort-induced depression model. The experiment in a line: Sucrose preference test in Cort-induced depression model. The following applies: Cort mice; 0.1 mg/kg intravenous; versus Cort mice + normal saline group (P<0.01).
Experimental: The sucrose preference test is used to evaluate the sucrose water preference of mice, which can reflect the degree of anhedonia of mice. In the entire animal experiment, a total of two sucrose preference tests were conducted. Before modeling, the sucrose preference coefficient of all mice was measured by the sucrose preference tests to ensure that the mice in the experiment were in the same state. After the test, the sucrose preference tests were formally carried out, including the adaptation training part and the test part. In the training, two bottles of 1% (w/v) sucrose solution were placed in each cage of mice in the first 24 hours, and one of the bottles was replaced with pure water in the next 24 hours. After the adaptation, fasting and water deprivation for 24 hours, and then the sucrose preference coefficient was measured. In the test, mice can only choose two bottles weighed in advance, one bottle is 1% (w/v) sucrose solution, and the other bottle is pure water. After fasting for 24 hours, take away the two bottles and weigh them, and record the total liquid consumption, sucrose water consumption and pure water consumption of the mice. The calculation method of sucrose preference coefficient is: sucrose preference coefficient (%) = sucrose water consumption/ (sucrose water consumption + pure water consumption) × 100%. […]
Setting [6] is: 0.1 mg/kg intravenous, versus AAD mice + normal saline group.

Regarding `O=c1ccc2ccc(OCCCCN3CCN(c4cccc5sccc45)CC3)cc2[nH]1` [Brexpiprazole], the immobility time entry in assay [1] (setting [6]) is “cannot change the depressive-like behavior”; in assay [1] (3 mg/kg intravenous) it was “significantly reducing”; in assay [2] (setting [6]), “cannot change the depressive-like behavior”; in assay [2] (3 mg/kg intravenous) it was “significantly reducing”. In assay [3], the sucrose preference entry is recorded as “cannot change the depressive-like behavior”.
Take `CC(CCC(=O)[O-])[N+](C)(C)C` (stereo not shown) [4-TMAP, 4-(trimethylammonio) pentanoate]: in assay [1] (mouse, in vivo, iv, 0.1 mg/kg), the “duration of the antidepressant effect after a single administration” value lay in the range of 24 to 36 h. Further, the sucrose preference entry in assay [3], in assay [4] and in assay [5] was “significantly higher” throughout. Moreover, at human BBOX1, the dissociation constant entry was “low”.
